Consider two molecules from US20250305010A1, “LIPID COMPOSITIONS AND METHODS OF PRODUCING SAME” (Wilk Technologies International Ltd., priority 2022, published 2025).

Common to all, as to assay type: cell-based, bovine
Data set [1] has as its system mammary epithelial cells (MECs). The experiment in a line: Cell viability and morphology of MECs under oleic acid with or without LXRa. The protocol: 1. Oleic acid treatment: Oleic acid was added to the induction medium at […] final concentration. Treatment was carried for 1 up to 7 days.
2. […] LXRa was added into the media with or without Oleic acid. Two LXR agonists were tested: GW3965 (LXR1, SIGMA) and T0901317 (LXR2, SIGMA), each at a concentration of luM/ml for at least overnight (ON) incubation. The OA was added after cells reached the confluency of at least 80%.
The analysis was done for the presence of 360 μM OA or 1100 μM OA with or without LXRa (TO901317).

The test system is the same in data set [2]. Briefly: Intracellular triglycerides (TGs) in MECs, plate assay. The protocol:
1. Oleic acid treatment: Oleic acid was added to the induction medium at […] final concentration. Treatment was carried for 1 up to 7 days. 2. […] LXRa was added into the media with or without Oleic acid. Two LXR agonists were tested: GW3965 (LXR1, SIGMA) and T0901317 (LXR2, SIGMA), each at a concentration of luM/ml for at least overnight (ON) incubation. The OA was added after cells reached the confluency of at least 80%. After treatment, cells were harvested with trypsin (0.05%), washed with 0.9% (w/v) NaCl and stored at −20° C. until lipid extraction. Total lipids were extracted from the intact cells by NP-40 and from media by cold-extraction procedure developed by Folch et al. with few adaptations. Briefly, a 5-ml aliquot of methanol: chloroform solution (2:1, v/v) was added to each sample. After incubation at room temperature, 1 ml of double-distilled water was added. After overnight incubation at 4° C., the upper phase was discarded, and the lower phase was filtered through a Pasteur pipette with glass wool. Samples were then dried under a nitrogen stream at 65° C., diluted in 100 μl 0.5% NP-40. Of note, lipid metabolites are measured by Cobas measurement, which is a parameter for lipid activity but measures also glycerol, the plate assay on the other hand measures TGs specifically while eliminating the glycerol background. After treatment, medium was collected and centrifuged at 500 g for 10 min. The supernatant was transferred to a fresh tube and kept at 4° C. until analysis. Medium triglyceride content was quantified with a Triglyceride Quantification Kit (lipase assay Abcam, Cambridge, UK). Quantification was performed against external standard curves and expressed as μg/10∧6 live cells. Live cell number was determined with a hemocytometer after Trypan blue staining.

Data set [3] has the same test system. The experiment in a line: Lipids / lipid metabolites released to the culture medium of MECs. To be noted: 1 μM/ml LXRa with OA. The protocol: Total lipids were extracted from the intact cells by NP-40 and from media by cold-extraction procedure developed by Folch et al. with few adaptations. Briefly, a 5-ml aliquot of methanol: chloroform solution (2:1, v/v) was added to each sample. After incubation at room temperature, 1 ml of double-distilled water was added. After overnight incubation at 4° C., the upper phase was discarded, and the lower phase was filtered through a Pasteur pipette with glass wool. Samples were then dried under a nitrogen stream at 65° C., diluted in 100 μl 0.5% NP-40. Of note, lipid metabolites are measured by Cobas measurement, which is a parameter for lipid activity but measures also glycerol, the plate assay on the other hand measures TGs specifically while eliminating the glycerol background. After treatment, medium was collected and centrifuged at 500 g for 10 min. The supernatant was transferred to a fresh tube and kept at 4° C. until analysis. Medium triglyceride content was quantified with a Triglyceride Quantification Kit (lipase assay Abcam, Cambridge, UK). Quantification was performed against external standard curves and expressed as μg/10∧6 live cells. Live cell number was determined with a hemocytometer after Trypan blue staining.

Data set [4] has as its system LXR downstream genes: SREBP1, FASN, SLC25A1 and SQLE. The experiment in a line: RT-PCR expression of LXR downstream lipid metabolism genes in MECs after overnight LXR agonist incubation. To be noted: OA incubation of MECs. The protocol: A primary culture of MEC was isolated from mammary biopsies. Briefly, udder tissue was collected from lactating cows in a commercial slaughterhouse and immediately submerged in ice-cold growth medium, DMEM-F12, with 1000 U/ml penicillin, 1 mg/ml streptomycin, 2.5 μg/ml amphotericin B mixture, and 0.02 mg/ml heparin supplementation to prevent cell clotting after digestion. Study protocols followed the regulations of the Israeli Ministry of Health. Cells were grown in plastic culture dishes with DMEM/F12 supplemented with 10% (w/v) FBS, 100 U/ml penicillin, 100 μg/ml streptomycin, 0.25 μg/ml amphotericin B supplemented with insulin (1 μg/ml), hydrocortisone (0.5 μg/ml) and prolactin (1 μg/ml). 2. […] LXRa was added into the media with or without Oleic acid. Two LXR agonists were tested: GW3965 (LXR1, SIGMA) and T0901317 (LXR2, SIGMA), each at a concentration of luM/ml for at least overnight (ON) incubation. The OA was added after cells reached the confluency of at least 80%. Cells were harvested using the […] reagent and pellet was collected by centrifugation of 3 min in 300 rcf. RNA was extracted from 1×10^6 cells using NzytechTM total RNA isolation kit (MB13402). cDNA was prepared using SensiFastTM cDNA kit (0.5μgr RNA/20 μl reaction mix). RT-PCR was done with the following primers by using SensiFastTM RT-PCR kit with 1.25-20 ng cDNA/well. [table] […]

On to `O=S(=O)(c1ccccc1)N(CC(F)(F)F)c1ccc(C(O)(C(F)(F)F)C(F)(F)F)cc1` [LXRa, T0901317], for which the “Effect of LXRa on oleic acid toxicity (cells viability and morphology)” value in data set [1] (LXRa 1 μM/ml TO901317, 360 μM or 1100 μM OA) was “ameliorates the negative effect”. In addition, in data set [2] (360 μM OA treatment, LXRa 1 μl/ml), the “Higher intracellular TGs levels vs OA only” value worked out at 60%. Further, the “Delta triglycerides (TGs) levels inside cells with vs without LXRa” value in data set [2] (FIG. 3) was “similar”. Also, in data set [2] (OA concentrations higher than 360 μM), the “Effect of LXR agonist on intracellular TGs” value is reported as “not observed”. Further, the “Lipids release to the medium” value in data set [3] is listed as “release lipids to the medium”.
Turning to `CCCCCCCC/C=C\CCCCCCCC(=O)O` [Oleic acid, oleic acid], the “Effect on LXR dependent gene expression of lipid metabolism” value in data set [4] is listed as “no effect”. The “Effect on cells viability” value in data set [1] (oleic acid above 300 μM or longer than one day) was “negative effect”.
